Measurements as given in patent publication US9738634B2, “Heterocyclic amide compound and herbicide” (SYNGENTA PARTICIPATIONS AG, priority 2013, dated 2017).

Legend:
Assay type in all cases: in vivo
Settings in all cases: treatment dosage 320 g/ha
catchweed [1] = experiment: Test Example 3: weedkilling efficacy through soil treatment; O: catchweed
Procedure, shortened: (§1)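 Crop and weed responses were judged three weeks after a uniform surface spray of the water-diluted emulsion at the given g/ha rate. Seeds sat beneath about 1.5 cm of sterilized diluvial soil, and boxes stood in a greenhouse at 25 to 30° C.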

transplanted rice = experiment: Test Example 1: preemergent weed treatment in the submerged state, effect on crop; a: transplanted rice
Procedure, shortened: (§2)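 Pre-emergence application onto floodwater (4 cm, alluvial soil) on the day of sowing, dose expressed as g/ha from diluted emulsion formulation. Weeds sown with 2.5-leaf transplanted rice as crop; plants held at 25–30 °C in greenhouse and scored against assessment criteria after 3 weeks.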

fig-leafed goosefoot [2] = experiment: Test Example 4: weedkilling efficacy by foliar treatment; M: fig-leafed goosefoot
Procedure, shortened: (§3)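 Seeds are spot-sown into sterilized diluvial soil and covered with about 1.5 cm of soil. After 14 days' greenhouse growth at 25 to 30° C, plants are sprayed on stems and leaves with diluted emulsion at the stated g/ha rate, then scored at 3 weeks.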

directly sown rice [3] = experiment: Test Example 4: foliar treatment, effect on crop; b: directly sown rice
Procedure, shortened: as §3

redroot pigweed [4] = experiment: Test Example 3: weedkilling efficacy through soil treatment; L: redroot pigweed
Procedure, shortened: as §1

Indian mallow [5] = experiment: Test Example 4: weedkilling efficacy by foliar treatment; K: Indian mallow
Procedure, shortened: as §3

beet [6] = experiment: Test Example 4: foliar treatment, effect on crop; f: beet
Procedure, shortened: as §3

redroot pigweed [7] = experiment: Test Example 4: weedkilling efficacy by foliar treatment; L: redroot pigweed
Procedure, shortened: as §3

chickweed [8] = experiment: Test Example 3: weedkilling efficacy through soil treatment; N: chickweed
Procedure, shortened: as §1

Italian ryegrass [9] = experiment: Test Example 3: weedkilling efficacy through soil treatment; I: Italian ryegrass
Procedure, shortened: as §1

wheat [10] = experiment: Test Example 3: soil treatment, effect on crop; e: wheat
Procedure, shortened: as §1

barnyard grass [11] = experiment: Test Example 1: weedkilling efficacy, preemergent weed treatment in the submerged state; A: barnyard grass
Procedure, shortened: as §2

crabgrass [12] = experiment: Test Example 3: weedkilling efficacy through soil treatment; D: crabgrass
Procedure, shortened: as §1

oval-leafed pondweed [13] = experiment: Test Example 1: weedkilling efficacy, preemergent weed treatment in the submerged state; C: oval-leafed pondweed
Procedure, shortened: as §2

Indian mallow [14] = experiment: Test Example 3: weedkilling efficacy through soil treatment; K: Indian mallow
Procedure, shortened: as §1

bulrush [15] = experiment: Test Example 2: weedkilling efficacy, growth period weed treatment in the submerged state; B: bulrush
Procedure, shortened: (§4)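 Weeds treated at the 1-2 leaf stage by application of diluted emulsion onto floodwater (4 cm depth, alluvial soil) at specified g/ha. Grown in greenhouse at 25 to 30° C; herbicidal effect rated three weeks after treatment.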

black-grass [16] = experiment: Test Example 3: weedkilling efficacy through soil treatment; H: black-grass
Procedure, shortened: as §1

corn [17] = experiment: Test Example 4: foliar treatment, effect on crop; c: corn
Procedure, shortened: as §3

rapeseed [18] = experiment: Test Example 4: foliar treatment, effect on crop; g: rapeseed
Procedure, shortened: as §3

green foxtail [19] = experiment: Test Example 4: weedkilling efficacy by foliar treatment; E: green foxtail
Procedure, shortened: as §3

barnyard grass [20] = experiment: Test Example 3: weedkilling efficacy through soil treatment; F: barnyard grass
Procedure, shortened: as §1

corn [21] = experiment: Test Example 3: soil treatment, effect on crop; c: corn
Procedure, shortened: as §1

green foxtail [22] = experiment: Test Example 3: weedkilling efficacy through soil treatment; E: green foxtail
Procedure, shortened: as §1

common wind-grass [23] = experiment: Test Example 3: weedkilling efficacy through soil treatment; J: common wind-grass
Procedure, shortened: as §1

soybean [24] = experiment: Test Example 4: foliar treatment, effect on crop; d: soybean
Procedure, shortened: as §3

bulrush [25] = experiment: Test Example 1: weedkilling efficacy, preemergent weed treatment in the submerged state; B: bulrush
Procedure, shortened: as §2

wild oat [26] = experiment: Test Example 4: weedkilling efficacy by foliar treatment; G: wild oat
Procedure, shortened: as §3

fig-leafed goosefoot [27] = experiment: Test Example 3: weedkilling efficacy through soil treatment; M: fig-leafed goosefoot
Procedure, shortened: as §1

barnyard grass [28] = experiment: Test Example 2: weedkilling efficacy, growth period weed treatment in the submerged state; A: barnyard grass
Procedure, shortened: as §4

crabgrass [29] = experiment: Test Example 4: weedkilling efficacy by foliar treatment; D: crabgrass
Procedure, shortened: as §3

beet [30] = experiment: Test Example 3: soil treatment, effect on crop; f: beet
Procedure, shortened: as §1

wild oat [31] = experiment: Test Example 3: weedkilling efficacy through soil treatment; G: wild oat
Procedure, shortened: as §1

directly sown rice [32] = experiment: Test Example 3: soil treatment, effect on crop; b: directly sown rice
Procedure, shortened: as §1

Italian ryegrass [33] = experiment: Test Example 4: weedkilling efficacy by foliar treatment; I: Italian ryegrass
Procedure, shortened: as §3

wheat [34] = experiment: Test Example 4: foliar treatment, effect on crop; e: wheat
Procedure, shortened: as §3

chickweed [35] = experiment: Test Example 4: weedkilling efficacy by foliar treatment; N: chickweed
Procedure, shortened: as §3

soybean [36] = experiment: Test Example 3: soil treatment, effect on crop; d: soybean
Procedure, shortened: as §1

rapeseed [37] = experiment: Test Example 3: soil treatment, effect on crop; g: rapeseed
Procedure, shortened: as §1

oval-leafed pondweed [38] = experiment: Test Example 2: weedkilling efficacy, growth period weed treatment in the submerged state; C: oval-leafed pondweed
Procedure, shortened: as §4

barnyard grass [39] = experiment: Test Example 4: weedkilling efficacy by foliar treatment; F: barnyard grass
Procedure, shortened: as §3

black-grass [40] = experiment: Test Example 4: weedkilling efficacy by foliar treatment; H: black-grass
Procedure, shortened: as §3

common wind-grass [41] = experiment: Test Example 4: weedkilling efficacy by foliar treatment; J: common wind-grass
Procedure, shortened: as §3

catchweed [42] = experiment: Test Example 4: weedkilling efficacy by foliar treatment; O: catchweed
Procedure, shortened: as §3

birds-eye speedwell = experiment: Test Example 4: weedkilling efficacy by foliar treatment; p: birds-eye speedwell
Procedure, shortened: as §3

With `CC1=C(c2ccccc2)C(=O)N(C(C)(C)C(=O)Nc2cc(C(F)(F)F)cc(C)n2)CO1` [B-2-51] as the compound, how does the “O (catchweed) weedkilling efficacy grade” value (catchweed [1]) read?
The value was 3 (weed kill ratio 40% or more, less than 70%).

And the “a (transplanted rice) effect on crop grade” value (transplanted rice)?
The value was 0 (weed kill ratio 5% or less (practically no effect)).

And the “M (fig-leafed goosefoot) weedkilling efficacy grade” value (fig-leafed goosefoot [2])?
Its value is 4 (weed kill ratio 70% or more, less than 90%).

And the “b (directly sown rice) effect on crop grade” value (directly sown rice [3])?
The value was 4 (weed kill ratio 70% or more, less than 90%).

And the “L (redroot pigweed) weedkilling efficacy grade” value (redroot pigweed [4])?
Its value is 4 (weed kill ratio 70% or more, less than 90%).

And the “K (Indian mallow) weedkilling efficacy grade” value (Indian mallow [5])?
Its value is 4 (weed kill ratio 70% or more, less than 90%).

What about the “f (beet) effect on crop grade” value (beet [6]) of the same compound?
The value was 4 (weed kill ratio 70% or more, less than 90%).

And the “L (redroot pigweed) weedkilling efficacy grade” value (redroot pigweed [7])?
Its value is 4 (weed kill ratio 70% or more, less than 90%).

What about the “N (chickweed) weedkilling efficacy grade” value (chickweed [8]) of the same compound?
Its value is 4 (weed kill ratio 70% or more, less than 90%).

What about the “I (Italian ryegrass) weedkilling efficacy grade” value (Italian ryegrass [9]) of the same compound?
The value was 5 (weed kill ratio 90% or more, (practically complete withering)).

And the “e (wheat) effect on crop grade” value (wheat [10])?
Its value is 0 (weed kill ratio 5% or less (practically no effect)).

And the “A (barnyard grass) weedkilling efficacy grade” value (barnyard grass [11])?
The value was 5 (weed kill ratio 90% or more, (practically complete withering)).

What about the “D (crabgrass) weedkilling efficacy grade” value (crabgrass [12]) of the same compound?
The value was 5 (weed kill ratio 90% or more, (practically complete withering)).

And the “C (oval-leafed pondweed) weedkilling efficacy grade” value (oval-leafed pondweed [13])?
Its value is 5 (weed kill ratio 90% or more, (practically complete withering)).

What about the “K (Indian mallow) weedkilling efficacy grade” value (Indian mallow [14]) of the same compound?
The value was 2 (weed kill ratio 20% or more, less than 40%).

What about the “B (bulrush) weedkilling efficacy grade” value (bulrush [15]) of the same compound?
Its value is 5 (weed kill ratio 90% or more, (practically complete withering)).

And the “H (black-grass) weedkilling efficacy grade” value (black-grass [16])?
Its value is 5 (weed kill ratio 90% or more, (practically complete withering)).

What about the “c (corn) effect on crop grade” value (corn [17]) of the same compound?
Its value is 0 (weed kill ratio 5% or less (practically no effect)).

And the “g (rapeseed) effect on crop grade” value (rapeseed [18])?
Its value is 3 (weed kill ratio 40% or more, less than 70%).

And the “E (green foxtail) weedkilling efficacy grade” value (green foxtail [19])?
The value was 5 (weed kill ratio 90% or more, (practically complete withering)).

And the “F (barnyard grass) weedkilling efficacy grade” value (barnyard grass [20])?
Its value is 5 (weed kill ratio 90% or more, (practically complete withering)).

What about the “c (corn) effect on crop grade” value (corn [21]) of the same compound?
The value was 1 (weed kill ratio 5% or more, less than 20%).

What about the “E (green foxtail) weedkilling efficacy grade” value (green foxtail [22]) of the same compound?
The value was 5 (weed kill ratio 90% or more, (practically complete withering)).

What about the “J (common wind-grass) weedkilling efficacy grade” value (common wind-grass [23]) of the same compound?
The value was 5 (weed kill ratio 90% or more, (practically complete withering)).

What about the “d (soybean) effect on crop grade” value (soybean [24]) of the same compound?
The value was 3 (weed kill ratio 40% or more, less than 70%).

What about the “B (bulrush) weedkilling efficacy grade” value (bulrush [25]) of the same compound?
The value was 5 (weed kill ratio 90% or more, (practically complete withering)).

And the “G (wild oat) weedkilling efficacy grade” value (wild oat [26])?
The value was 5 (weed kill ratio 90% or more, (practically complete withering)).

And the “M (fig-leafed goosefoot) weedkilling efficacy grade” value (fig-leafed goosefoot [27])?
Its value is 4 (weed kill ratio 70% or more, less than 90%).

What about the “A (barnyard grass) weedkilling efficacy grade” value (barnyard grass [28]) of the same compound?
Its value is 5 (weed kill ratio 90% or more, (practically complete withering)).

What about the “D (crabgrass) weedkilling efficacy grade” value (crabgrass [29]) of the same compound?
The value was 5 (weed kill ratio 90% or more, (practically complete withering)).

And the “f (beet) effect on crop grade” value (beet [30])?
The value was 4 (weed kill ratio 70% or more, less than 90%).

What about the “G (wild oat) weedkilling efficacy grade” value (wild oat [31]) of the same compound?
The value was 5 (weed kill ratio 90% or more, (practically complete withering)).

What about the “b (directly sown rice) effect on crop grade” value (directly sown rice [32]) of the same compound?
Its value is 3 (weed kill ratio 40% or more, less than 70%).

And the “I (Italian ryegrass) weedkilling efficacy grade” value (Italian ryegrass [33])?
Its value is 5 (weed kill ratio 90% or more, (practically complete withering)).

What about the “e (wheat) effect on crop grade” value (wheat [34]) of the same compound?
Its value is 1 (weed kill ratio 5% or more, less than 20%).

And the “N (chickweed) weedkilling efficacy grade” value (chickweed [35])?
The value was 4 (weed kill ratio 70% or more, less than 90%).

What about the “d (soybean) effect on crop grade” value (soybean [36]) of the same compound?
The value was 0 (weed kill ratio 5% or less (practically no effect)).

What about the “g (rapeseed) effect on crop grade” value (rapeseed [37]) of the same compound?
Its value is 2 (weed kill ratio 20% or more, less than 40%).

What about the “C (oval-leafed pondweed) weedkilling efficacy grade” value (oval-leafed pondweed [38]) of the same compound?
Its value is 5 (weed kill ratio 90% or more, (practically complete withering)).

What about the “F (barnyard grass) weedkilling efficacy grade” value (barnyard grass [39]) of the same compound?
The value was 5 (weed kill ratio 90% or more, (practically complete withering)).

What about the “H (black-grass) weedkilling efficacy grade” value (black-grass [40]) of the same compound?
Its value is 5 (weed kill ratio 90% or more, (practically complete withering)).

What about the “J (common wind-grass) weedkilling efficacy grade” value (common wind-grass [41]) of the same compound?
Its value is 5 (weed kill ratio 90% or more, (practically complete withering)).

And the “O (catchweed) weedkilling efficacy grade” value (catchweed [42])?
The value was 4 (weed kill ratio 70% or more, less than 90%).

And the “P (birds-eye speedwell) weedkilling efficacy grade” value (birds-eye speedwell)?
Its value is 4 (weed kill ratio 70% or more, less than 90%).
